Results on 1 compound are retold here after US4526989A, “1,4-Bis (substituted-amino)-5,8-dihydroxy-anthraquinones and leuco bases thereof” (priority 1979, dated 1985).

Assay [1] has as its system lymphocytic leukemia P388. As to the kind of experiment: Lymphocytic leukemia P388 test (intraperitoneal administration). It counts as in vivo, DBA/2 mice. The note with it: days 1, 5 and 9. The method, then:
The animals used are DBA/2 mice all of one sex, weighing a minimum of 17 g. and all within a 3 gram weight range. There are 5 or 6 animals per test group. The tumor transplant is by intraperitoneal injection of 0.1 ml. of dilute ascitic fluid containing 10^6 cells of lymphocytic leukemia P388. The test compounds are administered intraperitoneally on days one, 5 and 9 (relative to tumor inoculation) at various doses. The animals are weighed and survivors are recorded on a regular basis for 30 days. The median survival time and the ratio of survival time for treated (T)/control (C) animals are calculated.

The test system of another assay is melanotic melanoma B16. As to the kind of experiment: Melanotic Melanoma B16 test. It counts as in vivo, C57BC/6 mice. The following applies: days 1 through 9. The method, then: The animals used are C57BC/6 mice, all of the same sex, weighing a minimum of 17 g. and all within a 3-g. weight range. There are normally 10 animals per test group. A one-gram portion of melanotic melanoma B16 tumor is homogenized in 10 ml. of cold balanced salt solution and a 0.5-ml. aliquot of the homogenate is implanted intraperitoneally into each of the test mice. The test compounds are administered intraperitoneally on days one through 9 (relative to tumor inoculation) at various doses. The animals are weighed and survivors are recorded on a regular basis for 60 days. The median survival time and the ratio of survival time for treated (T)/control (C) animals are calculated. […] The criterion for efficacy is T/C×100≥125%.

With `NCCNCCNc1ccc(NCCNCCN)c2c1C(=O)c1c(O)ccc(O)c1C2=O` [1,4-Bis[2-(2-aminoethylamino)ethylamino]-5,8-dihydroxyanthraquinone], the “Median Survival Time” value came out at 13.0 days in assay [1] (25 mg./kg. i.p.); 14.0 days in assay [1] (50 mg./kg. i.p.); 16.0 days in assay [1] (100 mg./kg. i.p.); 17.0 days in assay [1] (200 mg./kg. i.p.); 20.0 days in the assay on melanotic melanoma B16 (6 mg./kg. i.p.); 22.0 days in the assay with melanotic melanoma B16 (12 mg./kg. i.p.). Further, the “Median Survival Time” value is 22.5 days in the assay on melanotic melanoma B16 (25 mg./kg. i.p.) and 24.0 days with melanotic melanoma B16 (50 mg./kg. i.p.). In addition, the response vs control in vivo at 25 mg/kg in assay [1] (Mus musculus, P388, ip, 25 mg./kg. i.p., efficacy ≥125%, read-out: T/C × 100) was found to be 124%; in the assay with melanotic melanoma B16 (Mus musculus, ip, 25 mg./kg. i.p., efficacy ≥125%, read-out: T/C × 100), 141%. Moreover, the response vs control in vivo at 50 mg/kg in assay [1] (Mus musculus, P388, ip, 50 mg./kg. i.p., efficacy ≥125%, read-out: T/C × 100) turned out to be 133%; with melanotic melanoma B16 (Mus musculus, ip, 50 mg./kg. i.p., efficacy ≥125%, read-out: T/C × 100), 150%. Moreover, the response vs control in vivo at 100 mg/kg in assay [1] (Mus musculus, P388, ip, 100 mg./kg. i.p., efficacy ≥125%, read-out: T/C × 100) is 152%. The response vs control in vivo at 200 mg/kg in assay [1] (Mus musculus, P388, ip, 200 mg./kg. i.p., efficacy ≥125%, read-out: T/C × 100) came out at 162%. The response vs control in vivo at 6 mg/kg with melanotic melanoma B16 (Mus musculus, ip, 6 mg./kg. i.p., efficacy ≥125%, read-out: T/C × 100) turned out to be 125%. Besides, the response vs control in vivo at 12 mg/kg in the assay on melanotic melanoma B16 (Mus musculus, ip, 12 mg./kg. i.p., efficacy ≥125%, read-out: T/C × 100) was found to be 138%.
